Assay results reported in ChEMBL document CHEMBL1909622, “Identification of a novel RAMP-independent CGRP receptor antagonist” (Bioorg Med Chem Lett, 2011).

How the values were obtained:
[1] = Volume of distribution at steady state in dog at 0.5 mg/kg, iv and 1 mg/kg, po; format: ADME, organism-based, Canis lupus familiaris; details: in vivo, read-out: Vdss
[2] = Clearance in rat at 2 mg/kg, iv and 10 mg/kg, po; format: ADME, organism-based; details: in vivo
[3] = Half life in rat at 2 mg/kg, iv; format: ADME, organism-based; set-up: dose 2 mg/kg, route intravenous; details: in vivo
[4] = Oral bioavailability in rat at 10 mg/kg; format: ADME, organism-based; details: in vivo
[5] = Clearance in dog at 0.5 mg/kg, iv and 1 mg/kg, po; format: ADME, organism-based, Canis lupus familiaris; details: in vivo
[6] = Oral bioavailability in dog at 1 mg/kg; format: ADME, organism-based, Canis lupus familiaris; details: in vivo
[7] = Half life in dog at 0.5 mg/kg, iv; format: ADME, organism-based, Canis lupus familiaris; set-up: dose 0.5 mg/kg, route intravenous; details: in vivo
[8] = Volume of distribution at steady state in rat at 2 mg/kg, iv and 10 mg/kg, po; format: ADME, organism-based; details: in vivo, read-out: Vdss
[9] = system: CGRP receptor (CALCRL/RAMP1) (Homo sapiens); assay: Ratio Ki for CGRP receptor in human SK-N-MC cells in the absence of MgCl2 to Ki for CGRP receptor in human SK-N-MC cells in the presence of MgCl2

Question: Which results are given for `O=C(NCc1cc(F)cc(F)c1)c1nc(N2CCCCS2(=O)=O)cc(Br)c1O`?
Answer: Vd [1]: 3 L/kg; clearance [2]: 1.1 mL/min/kg; half-life [3]: 5.4 h; bioavailability [4]: 26%; clearance [5]: 5.1 mL/min/kg; bioavailability [6]: 13%; half-life [7]: 7.1 h; Vd [8]: 0.4 L/kg

Question: Which Ratio Ki [9] does the source give for `CC(C)C[C@H](NC(=O)CNC(=O)[C@H](C)NC(=O)[C@H](CC(C)C)NC(=O)[C@H](CCCNC(=N)N)NC(=O)[C@H](Cc1cnc[nH]1)NC(=O)[C@@H](NC(=O)[C@@H](NC(=O)[C@H](CS)NC(=O)[C@@H](NC(=O)[C@H](C)NC(=O)[C@@H](NC(=O)[C@H](CC(=O)O)NC(=O)[C@H](CS)NC(=O)[C@H](C)N)[C@@H](C)O)[C@@H](C)O)C(C)C)[C@@H](C)O)C(=O)N[C@@H](CC(C)C)C(=O)N[C@@H](CO)C(=O)N[C@@H](CCCNC(=N)N)C(=O)N[C@@H](CO)C(=O)NCC(=O)NCC(=O)N[C@H](C(=O)N[C@H](C(=O)N[C@@H](CCCCN)C(=O)N[C@@H](CC(N)=O)C(=O)N[C@@H](CC(N)=O)C(=O)N[C@@H](Cc1ccccc1)C(=O)N[C@H](C(=O)N1CCC[C@H]1C(=O)N[C@H](C(=O)N[C@@H](CC(N)=O)C(=O)N[C@H](C(=O)NCC(=O)N[C@@H](CO)C(=O)N[C@@H](CCCCN)C(=O)N[C@@H](C)C(=O)N[C@@H](Cc1ccccc1)C(N)=O)C(C)C)[C@@H](C)O)C(C)C)C(C)C)C(C)C` here?
Answer: 1
